Counter-ions that a name gives are not always drawn.

One data set concerns the target T1, substance P receptors (Homo sapiens, UniProt P25103).
T1 construct: The receptor was prepared from human lymphoblast cells (IM-9); endogenous in cells; host or cells: IM-9 human lymphoblast cells (membrane preparation)
The data set can be described thus: Radioligand receptor binding inhibitory activity using receptor from human lymphoblast cells (IM-9), 125I-BHSP. As to conditions: radioligand 125I-BHSP, 25° C., 30 minutes, read-out: IC50 (concentration necessary to cause 50% inhibition). The method, then:
Radioligand receptor binding inhibitory activity (Binding inhibitory activity using receptor from human lymphoblast cells (IM-9))
The method of M. A. Cascieri et al., [Molecular Pharmacology, vol. 42, p. […] The receptor was prepared from human lymphoblast cells (IM-9). IM-9 cells (2×10^5 cells/mL) were incubated for 3 days (one liter), which was then subjected to centrifugation for 5 minutes at 500×G to obtain cell pellets. […] The residue was washed twice with 30 mL of the above-mentioned buffer, which was then preserved frozen (−80° C.) as a specimen of the receptor.
The specimen was suspended in a reaction buffer (50 mM Tri-HCl buffer (pH 7.4), 0.02% bovine serum albumin, 1 mM phenylmethylsulfonyl fluoride, 2 μg/mL chymostatin, 40 μg/mL bacitracin and 3 mM manganese chloride) to have protein in the concentration of 0.5 mg/mL of protein and 100 μL portion of the suspension was used in the reaction. […] The amount of nonspecific binding was determined by adding substance P at a final concentration of 2×10^−6 M.
After the reaction, using a cell harvester (290 PHD, Cambridge Technology, Inc., U.S.A.), filtration was carried out through a glass filter (GF/B, Whatman, U.S.A.), which was immersed in 0.1% polyethyleneimine for 24 hours and dried. After washing three times with 250 μL of 50 mM Tris-HCl buffer (pH 7.4) containing 0.02% bovine serum albumin, the radioactivity remaining on the filter was determined with a gamma counter.

T1 sequence (P25103 whole entry): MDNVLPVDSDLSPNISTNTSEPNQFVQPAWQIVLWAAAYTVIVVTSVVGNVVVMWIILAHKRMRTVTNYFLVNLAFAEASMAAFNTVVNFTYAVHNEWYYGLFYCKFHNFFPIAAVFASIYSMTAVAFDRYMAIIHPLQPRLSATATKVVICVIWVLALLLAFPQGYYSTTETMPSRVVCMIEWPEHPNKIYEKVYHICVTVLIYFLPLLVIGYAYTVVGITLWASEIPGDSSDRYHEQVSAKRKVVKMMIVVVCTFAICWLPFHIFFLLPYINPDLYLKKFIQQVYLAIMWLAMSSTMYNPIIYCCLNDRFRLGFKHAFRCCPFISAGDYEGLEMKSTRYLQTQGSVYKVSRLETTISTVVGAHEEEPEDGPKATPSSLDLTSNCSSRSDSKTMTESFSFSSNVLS

For orientation: melting point means the temperature, or range, at which the solid turns liquid. With `Cl.O=C1CC(C(=O)N2CC[C@H](NCc3cc(-c4ccc(Cl)cc4)ccc3OC(F)(F)F)[C@H](c3ccccc3)C2)CC(=O)N1`, the melting point amounted to 153 °C.
With `N#Cc1ccc(-c2ccc(OC(F)(F)F)c(CN[C@H]3CCN(C(=O)C(N)=O)C[C@H]3c3ccccc3)c2)c(F)c1` [Example 104, 2-[(3R,4S)-4-({[4′-cyano-2′-fluoro-4-(trifluoromethoxy)biphenyl-3-yl]methyl}amino)-3-phenylpiperidin-1-yl]-2-oxoacetamide], the melting point is 142 to 144 °C. For the same molecule, the IC50 at substance P receptors came out at 0.019 nM.
Take `CC1(C)OC(=O)N(CC(=O)N2CC[C@H](NCc3cc(-c4ccc(C#N)cc4F)ccc3OC(F)(F)F)[C@H](c3ccccc3)C2)C1=O` (as salt: hydrochloride) (hydrate or solvate) [Example 97, 3′-[({(3R,4S)-1-[(5,5-dimethyl-2,4-dioxo-1,3-oxazolidin-3-yl)acetyl]-3-phenylpiperidin-4-yl}amino)methyl]-2-fluoro-4′-(trifluoromethoxy)biphenyl-4-carbonitrile]: the melting point was in the range of 198 to 200 °C.
`CC1(C)OC(=O)N(CC(=O)N2CC[C@H](NCc3cc(-c4ccc(C#N)cc4)ccc3OC(F)(F)F)[C@H](c3ccccc3)C2)C1=O` (as salt: hydrochloride) (hydrate or solvate) [Example 137, 3′-[({(3R,4S)-1-[(5,5-dimethyl-2,4-dioxo-1,3-oxazolidin-3-yl)acetyl]-3-phenylpiperidin-4-yl}amino)methyl]-4′-(trifluoromethoxy)biphenyl-4-carbonitrile] gave a melting point of 197 to 199 °C.
Molecule `N#Cc1ccc(-c2ccc(OC(F)(F)F)c(CN[C@H]3CCN(C(=O)CO)C[C@H]3c3ccccc3)c2)c(F)c1` [Example 100, 2-fluoro-3′-({[(3R,4S)-1-glycoloyl-3-phenylpiperidin-4-yl]amino}methyl)-4′-(trifluoromethoxy)biphenyl-4-carbonitrile] returned a melting point of 132 to 134 °C. Besides, on substance P receptors, the IC50 turned out to be 0.015 nM.
Regarding `O=C1CC(C(=O)N2CC[C@H](NCc3cc(-c4ccc(Cl)cc4F)ccc3OC(F)(F)F)[C@H](c3ccccc3)C2)CC(=O)N1` (as salt: hydrochloride) [Example 132, 4-{[(3R,4S)-4-({[4′-chloro-2′-fluoro-4-(trifluoromethoxy)biphenyl-3-yl]methyl}amino)-3-phenylpiperidin-1-yl]carbonyl}piperidine-2,6-dione], the melting point lay within 162 to 164 °C.
Turning to `COc1ccc(-c2ccc(C)cc2)cc1CN[C@H]1CCN(C(=O)CNC(C)=O)C[C@H]1c1ccccc1` [Example 17, N-[2-((3R,4S)-4-{[(4-methoxy-4′-methylbiphenyl-3-yl)methyl]amino}-3-phenylpiperidin-1-yl)-2-oxoethyl]acetamide], the IC50 at substance P receptors amounted to 0.022 nM.

(Values after patent publication US20070149570A1, “Piperidine derivative and use thereof” (priority 2005, published 2007).)
